In ChEMBL document CHEMBL1201862, “PubChem BioAssay data set” (2004):
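Compound exposure: 48 hours, 5 concentrations, 96-well plates. GI50 marks 50% less growth.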 Activity calls are given as the source filed them. Cut-off read from the data, not from the text of the source: active = GI50 up to about 1.1 µM and inactive = higher.

Key:
Assay in all cases: NCI-60 cell line screen, 48 h
[1] = test system: DLD-1
[2] = test system: KM-20L2
[3] = test system: LXFL 529
[4] = test system: M19-MEL
[5] = test system: RXF 631
[6] = test system: SNB-78
[7] = test system: XF498
[8] = test system: BT-549
[9] = test system: HOP-18

Measured: GI50

CC(=O)N(O)Cc1ccccc1
inactive: [1] > 100 µM | [2] > 100 µM | [3] > 100 µM | [4] > 100 µM | [5] > 100 µM | [6] > 100 µM | [7] > 100 µM

COc1ccc(OC)c2[nH]c(Sc3c([N+](=O)[O-])ncn3C)nc12
inactive: [1] 20.6 µM | [2] 20.4 µM | [3] 13 µM | [4] 20.6 µM | [5] 18.5 µM | [6] 20.9 µM | [7] 17.3 µM

Cc1oc2c(c1C(=O)c1ccccc1)C(=O)c1ccccc1C2=O
inactive: [8] 6.19 µM | [1] 5.02 µM | [9] 16.6 µM | [2] 17.7 µM | [3] 1.62 µM | [4] 2.18 µM | [5] 17.7 µM | [6] > 100 µM | [7] 2.32 µM

COc1ccc(OC(C(=O)O)c2ccccc2)c2c1CCCC2=O (stereo unspecified)
inactive: [1] > 100 µM | [9] > 100 µM | [2] > 100 µM | [3] > 100 µM | [4] > 100 µM | [5] > 100 µM | [6] > 100 µM | [7] > 100 µM

CCCCC(C(=O)C(=O)NC1C2CC3CC(C2)CC1C3)C(=O)C(C)C (stereo unspecified)
inactive: [9] > 100 µM | [2] > 100 µM | [3] > 100 µM | [4] > 100 µM | [5] > 100 µM | [6] > 100 µM | [7] > 100 µM

COC(=O)C(Cc1nc2ccccc2nc1O)C(=O)C(=O)Nc1ccc([N+](=O)[O-])cc1[N+](=O)[O-] (stereo unspecified)
inactive: [1] 19.5 µM | [9] 16.8 µM | [2] 20.4 µM | [3] 12.8 µM | [4] 16.6 µM | [5] 24.5 µM | [6] 38.4 µM | [7] 20.1 µM
